From ChEMBL document CHEMBL5033997, “Macrolide Inspired Macrocycles as Modulators of the IL-17A/IL-17RA Interaction” (J Med Chem, 2021)

Assay: Inhibition of recombinant human IL-17A/IL-17AR protein-protein interaction using TMB substrate compound added on IL17A precoated plate and followed by IL-17AR addition by ELISA

Row | SMILES | IC50 [nM]
1 | CO[C@]1(C)C[C@H](O[C@H]2[C@H](C)[C@@H](O[C@@H]3O[C@H](C)C[C@H](N(C)C)[C@H]3O)[C@](C)(O)C[C@@H](C)CN(C)C(=O)C[C@@H](Cc3ccc(NC(=O)[C@H](Cc4ccccc4Cl)NC(=O)NCc4cccc(F)c4)cc3)NC(=O)[C@H](C(C)C)NC(=O)[C@@H]2C)O[C@@H](C)[C@@H]1O | 48
2 | CO[C@]1(C)C[C@H](O[C@H]2[C@H](C)[C@@H](O[C@@H]3O[C@H](C)C[C@H](N(C)C)[C@H]3O)[C@](C)(O)C[C@@H](C)CN(C)C(=O)C[C@@H](Cc3ccc(NC(=O)[C@H](Cc4ccccc4Cl)NC(=O)C(C)c4ccccc4)cc3)NC(=O)[C@H](C(C)C)NC(=O)[C@@H]2C)O[C@@H](C)[C@@H]1O (some centres not stated) | 246
3 | CO[C@]1(C)C[C@H](O[C@H]2[C@H](C)[C@@H](O[C@@H]3O[C@H](C)C[C@H](N(C)C)[C@H]3O)[C@](C)(O)C[C@@H](C)CN(C)C(=O)C[C@@H](Cc3ccc(NC(=O)[C@H](Cc4ccccc4Cl)NS(=O)(=O)Cc4ccccc4)cc3)NC(=O)[C@H](C(C)C)NC(=O)[C@@H]2C)O[C@@H](C)[C@@H]1O | 2560
4 | CO[C@]1(C)C[C@H](O[C@H]2[C@H](C)[C@@H](O[C@@H]3O[C@H](C)C[C@H](N(C)C)[C@H]3O)[C@](C)(O)C[C@@H](C)CN(C)C(=O)C[C@@H](Cc3ccc(NC(=O)[C@H](Cc4ccccc4C)NC(=O)Cc4ccccc4)cc3)NC(=O)[C@H](C(C)C)NC(=O)[C@@H]2C)O[C@@H](C)[C@@H]1O | 488
5 | CO[C@]1(C)C[C@H](O[C@H]2[C@H](C)[C@@H](O[C@@H]3O[C@H](C)C[C@H](N(C)C)[C@H]3O)[C@](C)(O)C[C@@H](C)CN(C)C(=O)C[C@@H](Cc3ccc(NC(=O)[C@H](Cc4c(Cl)cccc4Cl)NC(=O)Cc4ccccc4)cc3)NC(=O)[C@H](C(C)C)NC(=O)[C@@H]2C)O[C@@H](C)[C@@H]1O | 166
6 | CO[C@]1(C)C[C@H](O[C@H]2[C@H](C)[C@@H](O[C@@H]3O[C@H](C)C[C@H](N(C)C)[C@H]3O)[C@](C)(O)C[C@@H](C)CN(C)C(=O)C[C@@H](Cc3ccc(NC(=O)[C@H](Cc4ccccc4Cl)NC(=O)COc4ccccc4)cc3)NC(=O)[C@H](C(C)C)NC(=O)[C@@H]2C)O[C@@H](C)[C@@H]1O | 1090
7 | CO[C@]1(C)C[C@H](O[C@H]2[C@H](C)[C@@H](O[C@@H]3O[C@H](C)C[C@H](N(C)C)[C@H]3O)[C@](C)(O)C[C@@H](C)CN(C)C(=O)C[C@@H](Cc3ccc(NC(=O)[C@H](Cc4ccccc4Cl)NC(=O)Cc4ccc(C)cc4)cc3)NC(=O)[C@H](C(C)C)NC(=O)[C@@H]2C)O[C@@H](C)[C@@H]1O | 243
8 | CO[C@]1(C)C[C@H](O[C@H]2[C@H](C)[C@@H](O[C@@H]3O[C@H](C)C[C@H](N(C)C)[C@H]3O)[C@](C)(O)C[C@@H](C)CN(C)C(=O)C[C@@H](Cc3ccc(NC(=O)[C@H](Cc4ccccc4F)NC(=O)Cc4ccccc4)cc3)NC(=O)[C@H](C(C)C)NC(=O)[C@@H]2C)O[C@@H](C)[C@@H]1O | 315
9 | CO[C@]1(C)C[C@H](O[C@H]2[C@H](C)[C@@H](O[C@@H]3O[C@H](C)C[C@H](N(C)C)[C@H]3O)[C@](C)(O)C[C@@H](C)CN(C)C(=O)C[C@@H](Cc3ccc(NC(=O)[C@H](Cc4ccccc4Cl)NC(=O)Cc4cccc(C#N)c4)cc3)NC(=O)[C@H](C(C)C)NC(=O)[C@@H]2C)O[C@@H](C)[C@@H]1O | 471
10 | CO[C@]1(C)C[C@H](O[C@H]2[C@H](C)[C@@H](O[C@@H]3O[C@H](C)C[C@H](N(C)C)[C@H]3O)[C@](C)(O)C[C@@H](C)CN(C)C(=O)C[C@@H](Cc3ccc(NC(=O)[C@H](Cc4ccccc4Cl)NC(=O)Cc4ccc(C#N)cc4)cc3)NC(=O)[C@H](C(C)C)NC(=O)[C@@H]2C)O[C@@H](C)[C@@H]1O | 303
11 | CO[C@]1(C)C[C@H](O[C@H]2[C@H](C)[C@@H](O[C@@H]3O[C@H](C)C[C@H](N(C)C)[C@H]3O)[C@](C)(O)C[C@@H](C)CN(C)C(=O)C[C@@H](Cc3ccc(NC(=O)[C@H](Cc4ccccc4Cl)NC(=O)C(O)c4ccccc4)cc3)NC(=O)[C@H](C(C)C)NC(=O)[C@@H]2C)O[C@@H](C)[C@@H]1O (some centres not stated) | 1190
12 | CO[C@]1(C)C[C@H](O[C@H]2[C@H](C)[C@@H](O[C@@H]3O[C@H](C)C[C@H](N(C)C)[C@H]3O)[C@](C)(O)C[C@@H](C)CN(C)C(=O)C[C@@H](Cc3ccc(NC(=O)[C@H](Cc4ccccc4Cl)NC(=O)Cc4cccc(C)c4)cc3)NC(=O)[C@H](C(C)C)NC(=O)[C@@H]2C)O[C@@H](C)[C@@H]1O | 77
13 | CO[C@]1(C)C[C@H](O[C@H]2[C@H](C)[C@@H](O[C@@H]3O[C@H](C)C[C@H](N(C)C)[C@H]3O)[C@](C)(O)C[C@@H](C)CN(C)C(=O)C[C@@H](Cc3ccc(NC(=O)[C@H](Cc4ccccc4Cl)NC(=O)Nc4ccc(F)cc4)cc3)NC(=O)[C@H](C(C)C)NC(=O)[C@@H]2C)O[C@@H](C)[C@@H]1O | 323
14 | CO[C@]1(C)C[C@H](O[C@H]2[C@H](C)[C@@H](O[C@@H]3O[C@H](C)C[C@H](N(C)C)[C@H]3O)[C@](C)(O)C[C@@H](C)CN(C)C(=O)C[C@@H](Cc3ccc(NC(=O)[C@H](Cc4ccccc4Cl)NC(=O)c4ccccc4)cc3)NC(=O)[C@H](C(C)C)NC(=O)[C@@H]2C)O[C@@H](C)[C@@H]1O | 320
15 | CO[C@]1(C)C[C@H](O[C@H]2[C@H](C)[C@@H](O[C@@H]3O[C@H](C)C[C@H](N(C)C)[C@H]3O)[C@](C)(O)C[C@@H](C)CN(C)C(=O)C[C@@H](Cc3ccc(NC(=O)[C@H](Cc4ccccc4Cl)NC(=O)Cc4ccc(S(C)(=O)=O)cc4)cc3)NC(=O)[C@H](C(C)C)NC(=O)[C@@H]2C)O[C@@H](C)[C@@H]1O | 946
16 | CO[C@]1(C)C[C@H](O[C@H]2[C@H](C)[C@@H](O[C@@H]3O[C@H](C)C[C@H](N(C)C)[C@H]3O)[C@](C)(O)C[C@@H](C)CN(C)C(=O)C[C@@H](Cc3ccc(NC(=O)[C@H](Cc4ccccc4Cl)NC(=O)NCc4ccccc4F)cc3)NC(=O)[C@H](C(C)C)NC(=O)[C@@H]2C)O[C@@H](C)[C@@H]1O | 346
17 | COc1ccc(C2(C(=O)N[C@@H](Cc3ccccc3Cl)C(=O)Nc3ccc(C[C@@H]4CC(=O)N(C)C[C@H](C)C[C@@](C)(O)[C@H](O[C@@H]5O[C@H](C)C[C@H](N(C)C)[C@H]5O)[C@@H](C)[C@H](O[C@H]5C[C@@](C)(OC)[C@@H](O)[C@H](C)O5)[C@@H](C)C(=O)N[C@@H](C(C)C)C(=O)N4)cc3)CC2)cc1 | 5390
18 | CO[C@]1(C)C[C@H](O[C@H]2[C@H](C)[C@@H](O[C@@H]3O[C@H](C)C[C@H](N(C)C)[C@H]3O)[C@](C)(O)C[C@@H](C)CN(C)C(=O)C[C@@H](Cc3ccc(NC(=O)[C@H](Cc4ccccc4Cl)NC(=O)Nc4ccccc4F)cc3)NC(=O)[C@H](C(C)C)NC(=O)[C@@H]2C)O[C@@H](C)[C@@H]1O | 30
19 | CO[C@]1(C)C[C@H](O[C@H]2[C@H](C)[C@@H](O[C@@H]3O[C@H](C)C[C@H](N(C)C)[C@H]3O)[C@](C)(O)C[C@@H](C)CN(C)C(=O)C[C@@H](Cc3ccc(NC(=O)[C@H](Cc4ccccc4Cl)NC(=O)Cc4ccc(C(=O)O)cc4)cc3)NC(=O)[C@H](C(C)C)NC(=O)[C@@H]2C)O[C@@H](C)[C@@H]1O | > 10000
20 | CO[C@]1(C)C[C@H](O[C@H]2[C@H](C)[C@@H](O[C@@H]3O[C@H](C)C[C@H](N(C)C)[C@H]3O)[C@](C)(O)C[C@@H](C)CN(C)C(=O)C[C@@H](Cc3ccc(NC(=O)[C@H](Cc4ccc(Cl)cc4Cl)NC(=O)Cc4ccccc4)cc3)NC(=O)[C@H](C(C)C)NC(=O)[C@@H]2C)O[C@@H](C)[C@@H]1O | 211
21 | CO[C@]1(C)C[C@H](O[C@H]2[C@H](C)[C@@H](O[C@@H]3O[C@H](C)C[C@H](N(C)C)[C@H]3O)[C@](C)(O)C[C@@H](C)CN(C)C(=O)C[C@@H](Cc3ccc(NC(=O)[C@H](Cc4ccccc4Cl)NC(=O)Cc4ccccc4F)cc3)NC(=O)[C@H](C(C)C)NC(=O)[C@@H]2C)O[C@@H](C)[C@@H]1O | 198
22 | CO[C@]1(C)C[C@H](O[C@H]2[C@H](C)[C@@H](O[C@@H]3O[C@H](C)C[C@H](N(C)C)[C@H]3O)[C@](C)(O)C[C@@H](C)CN(C)C(=O)C[C@@H](Cc3ccc(NC(=O)[C@H](Cc4ccccc4Cl)NC(=O)Nc4cccc(F)c4)cc3)NC(=O)[C@H](C(C)C)NC(=O)[C@@H]2C)O[C@@H](C)[C@@H]1O | 547
23 | CO[C@]1(C)C[C@H](O[C@H]2[C@H](C)[C@@H](O[C@@H]3O[C@H](C)C[C@H](N(C)C)[C@H]3O)[C@](C)(O)C[C@@H](C)CN(C)C(=O)C[C@@H](Cc3ccc(NC(=O)[C@H](Cc4ccccc4Cl)NC(=O)Cc4cccc(S(C)(=O)=O)c4)cc3)NC(=O)[C@H](C(C)C)NC(=O)[C@@H]2C)O[C@@H](C)[C@@H]1O | 1600
24 | CO[C@]1(C)C[C@H](O[C@H]2[C@H](C)[C@@H](O[C@@H]3O[C@H](C)C[C@H](N(C)C)[C@H]3O)[C@](C)(O)C[C@@H](C)CN(C)C(=O)C[C@@H](Cc3ccc(NC(=O)[C@H](Cc4ccccc4Cl)NC(=O)NCc4ccc(F)cc4)cc3)NC(=O)[C@H](C(C)C)NC(=O)[C@@H]2C)O[C@@H](C)[C@@H]1O | 179
25 | CO[C@]1(C)C[C@H](O[C@H]2[C@H](C)[C@@H](O[C@@H]3O[C@H](C)C[C@H](N(C)C)[C@H]3O)[C@](C)(O)C[C@@H](C)CN(C)C(=O)C[C@@H](Cc3ccc(NC(=O)[C@H](Cc4ccccc4Cl)NC(=O)OCc4ccccc4)cc3)NC(=O)[C@H](C(C)C)NC(=O)[C@@H]2C)O[C@@H](C)[C@@H]1O | 59
26 | CO[C@]1(C)C[C@H](O[C@H]2[C@H](C)[C@@H](O[C@@H]3O[C@H](C)C[C@H](N(C)C)[C@H]3O)[C@](C)(O)C[C@@H](C)CN(C)C(=O)C[C@@H](Cc3ccc(NC(=O)[C@H](Cc4ccccc4Cl)NC(=O)Cc4cccc(F)c4)cc3)NC(=O)[C@H](C(C)C)NC(=O)[C@@H]2C)O[C@@H](C)[C@@H]1O | 80
27 | CO[C@]1(C)C[C@H](O[C@H]2[C@H](C)[C@@H](O[C@@H]3O[C@H](C)C[C@H](N(C)C)[C@H]3O)[C@](C)(O)C[C@@H](C)CN(C)C(=O)C[C@@H](Cc3ccc(NC(=O)[C@H](Cc4ccccc4Cl)NC(=O)Cc4ccc(F)cc4)cc3)NC(=O)[C@H](C(C)C)NC(=O)[C@@H]2C)O[C@@H](C)[C@@H]1O | 573
